Reference: patent publication US7084168B2, “Indoline derivatives” (Wyeth, priority 1999, dated 2006)
Where “and” joins values, the source holds several entries; their conditions need not be identical. Identical values can stand only once.

What was measured:
[1] = tested on: rat uterine decidualization; experiment: Rat decidualization assay; format: in vivo
Description: 1. Rat Decidualization Assay
The materials and methods used in tins assay are as follows.
The animals are treated once daily for seven days.
Uteri are removed and trimmed of fat.
Decidual response: [(D-C)/C]×100%

SMILES	melting point [°C]	also measured
COc1cccc(-c2ccc3c(c2)C(C)(C)C(=O)N3)c1 [Example 3, 5-(3-Methoxy-phenyl)-3,3-dimethyl-1,3-dihydro-indol-2-one]	157 to 158	–
N#CCc1cccc(-c2ccc3c(c2)C2(CCCCC2)C(=O)N3)c1 [Example 81, 3-(1′,2′-Dihydro-2′-oxospiro[cyclohexane-1,3′-[3H]indol]-5′-yl)phenylacetonitrile]	190 to 193	–
N#Cc1cncc(-c2ccc3c(c2)C2(CCCCC2)C(=O)N3)c1 [Example 17, 5-(1′,2′-Dihydro-2′-oxospiro[cyclohexane-1,3′-[3H]indol]-5′-yl)-3-pyridine carbonitrile]	232 to 234	–
O=C1Nc2ccc(-c3cccc(O)c3)cc2C12CCCCC2 [Example 33, 5′-(3-Hydroxyphenyl)spiro[cyclohexane-1,3′-[3H]indol]-2′(1′H)-one]	213 to 216	–
CC#C[C@]1(O)CC[C@H]2[C@@H]3CCC4=CC(=O)CCC4=C3[C@@H](c3ccc(N(C)C)cc3)C[C@@]21C [RU486]	–	IC50 ([1]; decrease in EC50 progesterone induced decidual response in rat, p.o., individual studies): 0.21 mg/kg, p.o. and 0.14 mg/kg, p.o.
O=C1Nc2ccccc2C12CCCC(c1cccc(F)c1)C2 (centres unmarked) [Example 21, 5-(3-Fluorophenyl)spiro[cyclohexane-1,3′-[3H]indol]-2′(1′H)-one]	171 to 172	–
CC1(C)C(=O)Nc2ccc(-c3cc(F)cc(C#N)c3)cc21 [Example 82, 3-(3,3-Dimethyl-2-oxo-2,3-dihydro-1H-indol-5-yl)-5-fluoro-benzonitrile]	231.2 to 232.3	–
C#C[C@]1(O)CC[C@H]2[C@@H]3CCC4=CC(=O)CC[C@@H]4[C@H]3C(=C)C[C@@]21CC [3-Ketodesogestrel]	–	Estimated average EC50 ([1]; rat decidual response, s.c., average of dose-response curves): 0.10 mg/kg, s.c.
O=C1Nc2ccc(-c3cccc(C=NO)c3F)cc2C12CCCCC2 [Example 68, 2-fluoro-3-(1′,2′-Dihydro-2′-oxospiro[cyclohexane-1,3′-[3H]indol]-5′-yl) benzaldehyde oxime]	213 to 217	–

Further lines, with some results ahead:

melting point [°C]	SMILES	also measured
240 to 242	O=C1Nc2ccc(-c3ccc(C=NO)c(F)c3)cc2C12CCCCC2 [Example 64, 2-fluoro-4-(1′,2′-Dihydro-2′-oxospiro[cyclohexane-1,3′-[3H]indol]-5′-yl) benzaldehyde oxime]	–
146	CCOC(OCC)N1C(=O)C2(CCCCC2)c2cc(-c3cc(F)cc(C#N)c3)ccc21 [Example 50, 3-(1′-Diethoxymethyl-1′,2′-dihydro-2′-oxospiro[cyclohexane-1,3′-[3H]indol]-5′-yl)-5-fluorobenzonitrile]	–
